Values joined by “and” are separate entries in the source; they are usually repeats but may differ in a detail not shown here. Equal values may be shown once. “Also recorded” adds a separate entry of the source. Values belong to the molecule of their own block, whether it stands above or below them.
How the values were obtained:
[1] = tested on: newly diagnosed glioblastoma (GBM); test: Phase I/IIa trial of cilengitide and temozolomide with concomitant radiotherapy in newly diagnosed glioblastoma; type: in vivo, human
Description: Patients and methods: Fifty-two pts (PS 0-1: 92%, 2: 8%; median age 57 yrs) after biopsy (n=9/17%) or tumor resection (n=43/83%) were treated with standard TMZ/RT (Stupp et al. NEJM 2005). In addition Cilengitide (500 mg i.v., 2×/week) was started one week before TMZ/RT and given throughout for the duration of chemotherapy or until progression. Primary endpoint was progression free survival rate at 6 months (target: 65%). Patients were followed with MRI every 2 months. Histopathologic diagnosis and MRI imaging were independently reviewed, MGMT promotor methylation status was assessed in 45 (86.5%) pts.

[2] = tested on: recurrent glioblastoma (GBM); test: Phase IIa trial of cilengitide single agent therapy in patients with recurrent glioblastoma
Description: (§6) Methods: In this multicenter, open-label, randomized, uncontrolled study, pts with GBM and measurable disease that had relapsed after previous therapy with temozolomide and radiotherapy were randomized to receive cilengitide at doses of either 500 mg or 2000 mg i.v., 2×/week, until progression. Histopathology diagnosis and MRI imaging were subject to independent blinded review. The primary endpoint was Progression Free Survival (PFS) at 6 months (mths). Secondary endpoints included response, survival, time to disease progression, safety, tolerability and pharmacokinetics.

[3] = tested on: recurrent glioblastoma (GBM); settings: human, in vivo
Description: as §6

[4] = tested on: U251 human glioblastoma cells; test: Rat orthotopic glioblastoma model, radiotherapy / cilengitide scheduling experiments (survival); type: in vivo, NIH rnu nude rats; set-up: key to Status at Date of Termination: Sick = moribund and removed from study; Healthy = indicates sampled for tissue at date shown, but alive at this point; Alive = surviving at time point shown; settings: for Days Post Implant / Status at Date of Termination: per animal, listed as Rt + EMD; for Days Post Implant: at date of termination, plus 7 subsequent daily boluses, 4 mg/kg
Description: NIH rnu nude rats are anaesthetized, restrained, and injected intracerebrally 1 mm retro orbitally, 3mm to the right of the bregma and at a depth of 2.5 mm with 5×10E5 U251 human glioblastoma cells suspended in 10 ul of culture medium, using a #2701 Hamilton syringe fitted with a 26 gauge needle, essentially as previously described (Engebraaten et al., 1999). After 14 days, cilengitide (4 mg/kg) is given as an intraperitoneal bolus in PBS, at various time (8 h, 4 h, 2 h, 1 h) prior to a single treatment with single, collimated, dorsal-ventral beam of 6 MV x-rays, so that 95-100% of the central axis dose of 25 Gy hit the tumor volume (Kim et al., 1999). Each of the 7 subsequent days the animals also received an identical i.p. bolus of cilengitide. The animals are maintained under ad libitum food and drink until they become moribund, or are sampled for tissue analysis (in the t-4 and t-8 h groups, where the animals are healthy past 230 days post tumor injection). A Kaplan-Meier survival curve is calculated and plotted (FIG. 1) from the raw data (Table 1). All animals in the RT monotherapy group died by 120 d.

[5] = tested on: human umbilical vein endothelial cells (HUVECs); test: Serum growth stimulation (proliferation) assay, Alamar Blue, HUVEC; type: cell-based
Description: (§1) The effect of integrin alpha V blocker EMD 121974 (Cilengitide) on the viability of human carcinoma cells were tested, in combination with vinorelbine and paclitaxel, respectively, in a cell viability assay, dependent on reduction of Alamar blue dye. Each agent alone could inhibiting carcinoma viability, used together the compounds show an advantagous and preferably synergistic inhibitory effect.
(§2) The methods established and described in detail previously (Goodman and Hahn a; b) were used to measure the effect of combinations of integrin inhibitors and chemotherapeutics on carcinoma cell and human endothelial cell proliferation.
(§3) Points were run in duplicate or in triplicate. Reagent blanks, containing media plus Alamar Blue without cells, were run on each plate. Blank values were subtracted from test values and were routinely 5-10% of uninhibited control values.
In the growth assay Cilengitide was tested in the range of 50 μM to 0.1 nM.
(§4) Chemotherapeutic agents and αv-integrin blockers were serially diluted alone or together (combination therapy). In some assays the chemotherapeutic agent was serially diluted alone or in combination with of alpha-v integrin blocker. Growth inhibition curves were plotted and a shift of the combination therapy curve to lower concentrations in relation to the single agent curves was interpreted as an additional effect, produced by combination versus monotherapy.
(§5) The αv-integrin competitive inhibitor Cilengitide (EMD 121974) was tested alone and in combination with vinorelbine in a serum growth stimulation assay using human carcinoma cells or human umbilical vein endothelial cells (HUVECs). In these assays cells are cultured in serum, or in an endothelial growth stimulation medium (Goodman & Hahn).

[6] = tested on: various brain tumors; settings: humans; cited from earlier work
[7] = tested on: NSCLC A549; test: Proliferation / cell viability assay, Alamar Blue, A549; type: cell-based, human; settings: for EC50: Homo sapiens, A549, agent alone or + Cilengitide
Description: as §1, §2, §3, §4, §5

[8] = tested on: renal carcinoma (A498); test: Proliferation / cell viability assay, Alamar Blue, A498; type: cell-based, human; settings: for EC50: Homo sapiens, A498, agent alone or + Cilengitide (2 μM constant)
Description: as §1, §2, §3, §4, §5
Cilengitide concentration is 2μM (constant).

[9] = tested on: SCCHN (Detroit562); test: Proliferation assay, Detroit 562; type: cell-based, human; settings: Cilengitide 2 μM (constant)
[10] = Homo sapiens, HUVEC, agent alone
[11] = Homo sapiens, HUVEC, in combination with 2 μM Cilengitide

Structure (SMILES): CC(C)[C@H]1C(=O)N[C@@H](CCCN=C(N)N)C(=O)NCC(=O)N[C@@H](CC(=O)O)C(=O)N[C@H](Cc2ccccc2)C(=O)N1C [Cilengitide, cyclo-(Arg-Gly-Asp-DPhe-NMeVal)]
haematological grade 3 and 4 toxicity: neutropenia ([1]; Cilengitide 500 mg + TMZ/RT, 5/52): 9.6% | haematological grade 3 and 4 toxicity: thrombocytopenia ([1]; Cilengitide 500 mg + TMZ/RT, 7/52): 13.4% | haematological grade 3 and 4 toxicity: lymphopenia ([1]; Cilengitide 500 mg + TMZ/RT, 28/52): 53.8% | Treatment related non-hematologic grade 3 toxicities, patients ([1]; Cilengitide 500 mg + TMZ/RT, n=3/52): 5.7% | tolerability of the combination with TMZ/RT ([1]; Cilengitide 500 mg i.v. 2x/week + TMZ/RT): well tolerated | patients progression free at 6 months (PFS-6) ([1]; Cilengitide 500 mg i.v. 2x/week added to standard TMZ/RT, 34/52, 95% CI 50.9-78.0%): 65.4% | sigmoid perforation (grade 2) ([1]; patient with a history of sigmoid diverticulosis): One | PFS-6 rate ([1]; subgroup with methylated MGMT promoter (23/52), Cilengitide 500 mg + TMZ/RT, historical control 69%): 91% | PFS-6 rate ([1]; subgroup with unmethylated MGMT promotor (22/52), Cilengitide 500 mg + TMZ/RT, historical control 40%): 40.9% | 12 mth overall survival (OS) rate ([2]; 500 mg arm): 24.4% | median Overall Survival (mOS) ([2]; 500 mg arm, 95% CI 5.2-9.3 mths): 6.5 mths | PFS rate at 6 mths ([2]; 500 mg or 2000 mg i.v. 2x/week, both arms, n=13/81 pts): 16.1% | 12 mth OS rate ([2]; 2000 mg arm): 37.5% | median Overall Survival (mOS) ([2]; 2000 mg arm, 95% CI 6.3-15.7 mths): 9.9 mths | grade 4 therapy related AEs ([2]; 500 and 2000 mg): No grade 4 therapy related AEs were reported | Treatment related NCI CTC grade 3 adverse event: arthralgia/myalgia ([2]; at 500 mg): 1 patient | Treatment related NCI CTC grade 3 adverse event: elevated liver enzymes ([2]; at 500 mg): 1 patient | Treatment related NCI CTC grade 3 adverse event: weight increase/edema ([2]; at 2000 mg): 1 patient | pts still progression-free and on treatment at the time the abstract was issued ([2]; both arms, six of 81 pts): 7.4% | tolerability in single agent therapy ([2]; two dose levels (500 and 2000 mg)): tolerated well | CTC grade 2 cerebral hemorrhage [3]: One | Days Post Implant ([4]; cilengitide bolus 4 mg/kg i.p. 1 hour pre-irradiation (Rt 25 Gy)): 112 days and 113 days and 130 days and 141 days | Days Post Implant ([4]; cilengitide bolus 4 mg/kg i.p. 2 hours pre-irradiation (Rt 25 Gy)): 120 days and 147 days and 162 days and 196 days | Days Post Implant ([4]; cilengitide bolus 4 mg/kg i.p. 4 hours pre-irradiation (Rt 25 Gy)): 238 Days (2×) and 254 Days (2×) | Days Post Implant ([4]; cilengitide bolus 4 mg/kg i.p. 8 hours pre-irradiation (Rt 25 Gy)): 287 Days (2×) and 257 Days (2×) | Status at Date of Termination ([4]; cilengitide 4 mg/kg 1 hour pre-irradiation (Rt 25 Gy)): (Sick) Sep. 1, 2005; also recorded: (Sick) Sep. 2, 2005; also recorded: (Sick) Sep. 19, 2005; also recorded: (Sick) Sep. 30, 2005 | Status at Date of Termination ([4]; cilengitide 4 mg/kg 2 hours pre-irradiation (Rt 25 Gy)): (Sick) Aug. 10, 2005; also recorded: (Sick) Sep. 6, 2005; also recorded: (Sick) Sep. 21, 2005; also recorded: (Sick) Oct. 25, 2005 | Status at Date of Termination ([4]; cilengitide 4 mg/kg 4 hours pre-irradiation (Rt 25 Gy)): (Healthy) Nov. 29, 2005; also recorded: (Alive) Dec. 15, 2005 | Status at Date of Termination ([4]; cilengitide 4 mg/kg 8 hours pre-irradiation (Rt 25 Gy)): (Alive) Dec. 15, 2005; also recorded: (Healthy) Nov. 15, 2005 | animals healthy past days post tumor injection ([4]; t-4 and t-8 h groups, cilengitide 4 mg/kg i.p. + 25 Gy): > 230 days | IC50 ([5]; agent alone): 700 nM | MTD / side effect profile [6]: no known MTD in humans

EC50 [7]: 8 nM | EC50 [8]: 100 nM
Structure (SMILES): CC(=O)O[C@H]1C(=O)[C@@]2(C)[C@H]([C@H](OC(=O)c3ccccc3)[C@]3(O)C[C@H](OC(=O)[C@H](O)[C@@H](NC(=O)c4ccccc4)c4ccccc4)C(C)=C1C3(C)C)[C@]1(OC(C)=O)CO[C@@H]1C[C@@H]2O [Paclitaxel]
IC50 [5, 10]: 10 nM | IC50 [5, 11]: 0.05 nM

EC50 [7]: 8 nM | EC50 [8]: 60 nM
Structure (SMILES): CCC1=C[C@@H]2CN(C1)Cc1c([nH]c3ccccc13)[C@@](C(=O)OC)(c1cc3c(cc1OC)N(C)[C@H]1[C@@](O)(C(=O)OC)[C@H](OC(C)=O)[C@]4(CC)C=CCN5CC[C@]31[C@@H]54)C2 [Vinorelbine]
effect of combination with Cilengitide on growth of A549 [7]: synergistically enhanced | effect of combination with Cilengitide on A498 cell proliferation ([8]; Cilengitide constant at 2 μM): synergistically enhanced | effect of combination with Cilengitide on SCCHN (Detroit562) cell proliferation [9]: synergistically enhanced | IC50 [5, 10]: 20 nM | IC50 [5, 11]: 0.8 nM
